Data as given in ChEMBL document CHEMBL3046635, “Synthesis and Herbicidal Activity of New Pyrazole-4-carboxamide Derivatives” (J Pestic Sci, 2004).
Activity calls are given as the source filed them. Unless noted, the calls are words filed in the database; no cut-off is given here.

Experiments:
[1] = test system: Lindernia procumbens; assay: Pre-emergence herbicidal activity against Lindernia procumbens assessed as bleaching of stem/leaf parts; assay type: functional, organism-based
[2] = test system: Elatine triandra; assay: Pre-emergence herbicidal activity against Elatine triandra at 100 g a.i/ha measured after 14 days; assay type: functional, organism-based
[3] = test system: Rotala indica; assay: Post-emergence herbicidal activity against Rotala indica assessed as bleaching of stem/leaf parts; assay type: functional, organism-based; further: test concentration or dose not given here
[4] = test system: Oryza sativa; assay: Phytotoxicity against Oryza sativa cv. Koshihikari (rice) at 100 g a.i/ha measured after 14 days; assay type: organism-based; details: in vivo, 336 h
[5] = test system: Elatine triandra; assay: Post-emergence herbicidal activity against Elatine triandra assessed as bleaching of stem/leaf parts; assay type: functional, organism-based; further: test concentration or dose not given here
[6] = test system: Echinochloa oryzicola; assay: Post-emergence herbicidal activity against Echinochloa oryzicola assessed as bleaching of stem/leaf parts; assay type: functional, organism-based; further: test concentration or dose not given here
[7] = test system: Oryza sativa; assay: Phytotoxicity against Oryza sativa cv. Koshihikari (rice) at 500 g a.i/ha measured after 14 days; assay type: organism-based; details: in vivo, 336 h
[8] = test system: Echinochloa oryzicola; assay: Pre-emergence herbicidal activity against Echinochloa oryzicola assessed as bleaching of stem/leaf parts; assay type: functional, organism-based
[9] = test system: Elatine triandra; assay: Pre-emergence herbicidal activity against Elatine triandra at 500 g a.i/ha measured after 14 days; assay type: functional, organism-based
[10] = test system: Pontederia vaginalis; assay: Pre-emergence herbicidal activity against Monochoria vaginalis assessed as bleaching of stem/leaf parts; assay type: functional, organism-based
[11] = test system: Echinochloa oryzicola; assay: Pre-emergence herbicidal activity against Echinochloa oryzicola at 500 g a.i/ha measured after 14 days; assay type: functional, organism-based
[12] = test system: Eleocharis acicularis; assay: Pre-emergence herbicidal activity against Eleocharis acicularis at 500 g a.i/ha measured after 14 days; assay type: functional, organism-based
[13] = test system: Pontederia vaginalis; assay: Post-emergence herbicidal activity against Monochoria vaginalis assessed as bleaching of stem/leaf parts; assay type: functional, organism-based; further: test concentration or dose not given here
[14] = test system: Pontederia vaginalis; assay: Pre-emergence herbicidal activity against Monochoria vaginalis at 500 g a.i/ha measured after 14 days; assay type: functional, organism-based
[15] = test system: Ammannia multiflora; assay: Post-emergence herbicidal activity against Ammannia multiflora assessed as bleaching of stem/leaf parts; assay type: functional, organism-based; further: test concentration or dose not given here
[16] = test system: Schoenoplectiella juncoides; assay: Pre-emergence herbicidal activity against Schoenoplectiella juncoides at 100 g a.i/ha measured after 14 days; assay type: functional, organism-based
[17] = test system: Cyperus difformis; assay: Post-emergence herbicidal activity against Cyperus difformis assessed as bleaching of stem/leaf parts; assay type: functional, organism-based; further: test concentration or dose not given here
[18] = test system: Lindernia procumbens; assay: Post-emergence herbicidal activity against Lindernia procumbens assessed as bleaching of stem/leaf parts; assay type: functional, organism-based; further: test concentration or dose not given here
[19] = test system: Schoenoplectiella juncoides; assay: Post-emergence herbicidal activity against Schoenoplectiella juncoides assessed as bleaching of stem/leaf parts; assay type: functional, organism-based; further: test concentration or dose not given here
[20] = test system: Cyperus difformis; assay: Pre-emergence herbicidal activity against Cyperus difformis at 500 g a.i/ha measured after 14 days; assay type: functional, organism-based
[21] = test system: Pontederia vaginalis; assay: Pre-emergence herbicidal activity against Monochoria vaginalis at 100 g a.i/ha measured after 14 days; assay type: functional, organism-based
[22] = test system: Elatine triandra; assay: Pre-emergence herbicidal activity against Elatine triandra assessed as bleaching of stem/leaf parts; assay type: functional, organism-based
[23] = test system: Eleocharis acicularis; assay: Post-emergence herbicidal activity against Eleocharis acicularis assessed as bleaching of stem/leaf parts; assay type: functional, organism-based; further: test concentration or dose not given here
[24] = test system: Rotala indica; assay: Pre-emergence herbicidal activity against Rotala indica at 100 g a.i/ha measured after 14 days; assay type: functional, organism-based
[25] = test system: Echinochloa oryzicola; assay: Pre-emergence herbicidal activity against Echinochloa oryzicola at 100 g a.i/ha measured after 14 days; assay type: functional, organism-based
[26] = test system: Rotala indica; assay: Pre-emergence herbicidal activity against Rotala indica at 500 g a.i/ha measured after 14 days; assay type: functional, organism-based
[27] = test system: Eleocharis acicularis; assay: Pre-emergence herbicidal activity against Eleocharis acicularis at 100 g a.i/ha measured after 14 days; assay type: functional, organism-based
[28] = test system: Schoenoplectiella juncoides; assay: Pre-emergence herbicidal activity against Schoenoplectiella juncoides at 500 g a.i/ha measured after 14 days; assay type: functional, organism-based
[29] = test system: Eleocharis acicularis; assay: Pre-emergence herbicidal activity against Eleocharis acicularis assessed as bleaching of stem/leaf parts; assay type: functional, organism-based
[30] = test system: Ammannia multiflora; assay: Pre-emergence herbicidal activity against Ammannia multiflora at 100 g a.i/ha measured after 14 days; assay type: functional, organism-based
[31] = test system: Cyperus difformis; assay: Pre-emergence herbicidal activity against Cyperus difformis assessed as bleaching of stem/leaf parts; assay type: functional, organism-based
[32] = test system: Lindernia procumbens; assay: Pre-emergence herbicidal activity against Lindernia procumbens at 100 g a.i/ha measured after 14 days; assay type: functional, organism-based
[33] = test system: Cyperus difformis; assay: Pre-emergence herbicidal activity against Cyperus difformis at 100 g a.i/ha measured after 14 days; assay type: functional, organism-based
[34] = test system: Lindernia procumbens; assay: Pre-emergence herbicidal activity against Lindernia procumbens at 500 g a.i/ha measured after 14 days; assay type: functional, organism-based
[35] = test system: Rotala indica; assay: Pre-emergence herbicidal activity against Rotala indica assessed as bleaching of stem/leaf parts; assay type: functional, organism-based
[36] = test system: Ammannia multiflora; assay: Pre-emergence herbicidal activity against Ammannia multiflora at 500 g a.i/ha measured after 14 days; assay type: functional, organism-based
[37] = test system: Schoenoplectiella juncoides; assay: Pre-emergence herbicidal activity against Schoenoplectiella juncoides assessed as bleaching of stem/leaf parts; assay type: functional, organism-based
[38] = test system: Ammannia multiflora; assay: Pre-emergence herbicidal activity against Ammannia multiflora assessed as bleaching of stem/leaf parts; assay type: functional, organism-based

SMILES	Activity [1]	Activity [2]	Activity [3]	Activity [4]	Activity [5]	Activity [6]	Activity [7]	Activity [8]	Activity [9]	Activity [10]	Activity [11]	Activity [12]	Activity [13]	Activity [14]	Activity [15]	Activity [16]	Activity [17]	Activity [18]	Activity [19]	Activity [20]	also measured
CONC(=O)c1cn(C)nc1OCc1cccc(C(F)(F)F)c1	Active	Active	Active	Non-toxic	Active	Active	Non-toxic	Active	Active	Active	Active	Active	Active	Active	Active	Active	Active	Active	Active	Active	Activity [21]: Active; Activity [22]: Active; Activity [23]: Active; Activity [24]: Active; Activity [25]: Active; Activity [26]: Active; Activity [27]: inactive; Activity [28]: Active; Activity [29]: Active; Activity [30]: Active; Activity [31]: Active; Activity [32]: Active; Activity [33]: Active; Activity [34]: Active; Activity [35]: Active; Activity [36]: Active; Activity [37]: Active; Activity [38]: Active
CCCONC(=O)c1cn(C)nc1OCc1cccc(C(F)(F)F)c1	Active	Active	Active	Non-toxic	Active	Active	Toxic	Active	Active	Active	Active	Active	Active	Active	Active	Active	Active	Active	Active	Active	Activity [21]: Active; Activity [22]: Active; Activity [23]: Active; Activity [24]: Active; Activity [25]: Active; Activity [26]: Active; Activity [27]: Active; Activity [28]: Active; Activity [29]: Active; Activity [30]: Active; Activity [31]: Active; Activity [32]: Active; Activity [33]: Active; Activity [34]: Active; Activity [35]: Active; Activity [36]: Active; Activity [37]: Active; Activity [38]: Active
